Patent US20250230149A1, “MGLUR5 MODULATING COMPOUNDS, COMPOSITIONS, AND METHODS OF USE” (Allyx Therapeutics, Inc., priority 2022, published 2025)
“Also recorded” adds a separate entry of the source. Like-named read-outs stand apart in the source and are kept apart here.

Assays:
[1] = molecular target: T1, pregnane X receptor (PXR) (Homo sapiens, UniProt O75469); experiment: PXR receptor activation, human; type: in vitro ADME
T1 sequence (O75469 1-434): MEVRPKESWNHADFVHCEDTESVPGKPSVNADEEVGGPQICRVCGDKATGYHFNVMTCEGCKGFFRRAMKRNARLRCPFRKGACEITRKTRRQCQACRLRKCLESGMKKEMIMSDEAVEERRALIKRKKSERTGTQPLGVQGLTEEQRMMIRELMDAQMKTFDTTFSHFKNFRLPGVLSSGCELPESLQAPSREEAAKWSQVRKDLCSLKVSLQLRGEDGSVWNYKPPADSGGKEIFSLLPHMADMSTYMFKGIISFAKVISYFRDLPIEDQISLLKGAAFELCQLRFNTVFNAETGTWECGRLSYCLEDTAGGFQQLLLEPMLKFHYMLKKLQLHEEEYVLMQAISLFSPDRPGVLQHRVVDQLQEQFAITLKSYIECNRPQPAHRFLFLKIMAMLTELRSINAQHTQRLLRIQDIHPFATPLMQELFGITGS
From the text: (§1) The objective of this study was to determine the human and rat pregnane X receptor (PXR) and human and rat aryl hydrocarbon receptor (AhR) receptor activation potential of Compound 1 Form A. The activation of PXR is a marker for induction of CYP3A4/5 and […] and the activation of AhR is a marker for induction of CYP1A.

[2] = molecular target: pregnane X receptor (PXR) (Rattus norvegicus, UniProt Q9R1A7); experiment: PXR receptor activation, rat; type: in vitro ADME; details: at 30 μM
Chain of pregnane X receptor (PXR) (Rattus norvegicus, UniProt Q9R1A7) (Q9R1A7 whole entry): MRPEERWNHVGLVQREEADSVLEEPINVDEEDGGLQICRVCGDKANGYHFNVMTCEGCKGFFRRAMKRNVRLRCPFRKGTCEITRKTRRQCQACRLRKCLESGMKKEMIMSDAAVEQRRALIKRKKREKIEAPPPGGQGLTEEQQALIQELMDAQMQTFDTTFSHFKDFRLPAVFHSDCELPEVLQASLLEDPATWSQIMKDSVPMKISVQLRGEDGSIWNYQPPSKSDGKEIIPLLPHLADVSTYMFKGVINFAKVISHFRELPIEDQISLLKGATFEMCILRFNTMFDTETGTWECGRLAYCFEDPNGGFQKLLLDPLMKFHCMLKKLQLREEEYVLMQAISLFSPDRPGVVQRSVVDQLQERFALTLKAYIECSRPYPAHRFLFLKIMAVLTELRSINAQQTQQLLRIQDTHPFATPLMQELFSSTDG
From the text: as §1

[3] = molecular target: aryl hydrocarbon receptor (AhR) (Rattus norvegicus, UniProt P41738); experiment: AhR receptor activation, rat; type: in vitro ADME; details: at 30 μM
Chain of aryl hydrocarbon receptor (AhR) (P41738 10-853): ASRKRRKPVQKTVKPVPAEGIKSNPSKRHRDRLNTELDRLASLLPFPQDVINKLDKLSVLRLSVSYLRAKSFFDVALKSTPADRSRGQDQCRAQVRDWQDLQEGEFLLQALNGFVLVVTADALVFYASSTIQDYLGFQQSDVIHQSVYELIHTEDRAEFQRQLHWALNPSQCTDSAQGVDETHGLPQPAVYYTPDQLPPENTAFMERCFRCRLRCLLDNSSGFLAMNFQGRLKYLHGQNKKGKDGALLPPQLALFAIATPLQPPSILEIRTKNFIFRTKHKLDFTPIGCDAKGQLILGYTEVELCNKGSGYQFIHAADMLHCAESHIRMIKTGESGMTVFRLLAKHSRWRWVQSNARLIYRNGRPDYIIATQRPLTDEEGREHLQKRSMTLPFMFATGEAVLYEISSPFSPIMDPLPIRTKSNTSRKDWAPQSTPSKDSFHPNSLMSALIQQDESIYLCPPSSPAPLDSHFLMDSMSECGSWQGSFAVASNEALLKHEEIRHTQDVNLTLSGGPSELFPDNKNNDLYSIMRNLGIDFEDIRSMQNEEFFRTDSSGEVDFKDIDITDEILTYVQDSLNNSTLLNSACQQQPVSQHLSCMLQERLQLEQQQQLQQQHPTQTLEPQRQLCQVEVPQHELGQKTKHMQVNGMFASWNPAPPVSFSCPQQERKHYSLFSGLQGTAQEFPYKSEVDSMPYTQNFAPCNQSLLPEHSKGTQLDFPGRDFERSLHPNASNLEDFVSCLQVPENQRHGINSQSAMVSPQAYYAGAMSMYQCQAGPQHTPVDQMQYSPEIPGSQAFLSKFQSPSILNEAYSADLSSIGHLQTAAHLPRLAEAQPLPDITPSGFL
From the text: as §1

[4] = molecular target: T2, mGluR5 (Mus musculus, UniProt Q3UVX5); experiment: [18F]FPEB PET displacement, receptor occupancy; type: in vivo, mice; details: for receptor occupancy at 3.75 mg/kg: mouse
T2 construct: from tissue; host or cells: brain of living mice
T2 sequence (Q3UVX5 19-1203): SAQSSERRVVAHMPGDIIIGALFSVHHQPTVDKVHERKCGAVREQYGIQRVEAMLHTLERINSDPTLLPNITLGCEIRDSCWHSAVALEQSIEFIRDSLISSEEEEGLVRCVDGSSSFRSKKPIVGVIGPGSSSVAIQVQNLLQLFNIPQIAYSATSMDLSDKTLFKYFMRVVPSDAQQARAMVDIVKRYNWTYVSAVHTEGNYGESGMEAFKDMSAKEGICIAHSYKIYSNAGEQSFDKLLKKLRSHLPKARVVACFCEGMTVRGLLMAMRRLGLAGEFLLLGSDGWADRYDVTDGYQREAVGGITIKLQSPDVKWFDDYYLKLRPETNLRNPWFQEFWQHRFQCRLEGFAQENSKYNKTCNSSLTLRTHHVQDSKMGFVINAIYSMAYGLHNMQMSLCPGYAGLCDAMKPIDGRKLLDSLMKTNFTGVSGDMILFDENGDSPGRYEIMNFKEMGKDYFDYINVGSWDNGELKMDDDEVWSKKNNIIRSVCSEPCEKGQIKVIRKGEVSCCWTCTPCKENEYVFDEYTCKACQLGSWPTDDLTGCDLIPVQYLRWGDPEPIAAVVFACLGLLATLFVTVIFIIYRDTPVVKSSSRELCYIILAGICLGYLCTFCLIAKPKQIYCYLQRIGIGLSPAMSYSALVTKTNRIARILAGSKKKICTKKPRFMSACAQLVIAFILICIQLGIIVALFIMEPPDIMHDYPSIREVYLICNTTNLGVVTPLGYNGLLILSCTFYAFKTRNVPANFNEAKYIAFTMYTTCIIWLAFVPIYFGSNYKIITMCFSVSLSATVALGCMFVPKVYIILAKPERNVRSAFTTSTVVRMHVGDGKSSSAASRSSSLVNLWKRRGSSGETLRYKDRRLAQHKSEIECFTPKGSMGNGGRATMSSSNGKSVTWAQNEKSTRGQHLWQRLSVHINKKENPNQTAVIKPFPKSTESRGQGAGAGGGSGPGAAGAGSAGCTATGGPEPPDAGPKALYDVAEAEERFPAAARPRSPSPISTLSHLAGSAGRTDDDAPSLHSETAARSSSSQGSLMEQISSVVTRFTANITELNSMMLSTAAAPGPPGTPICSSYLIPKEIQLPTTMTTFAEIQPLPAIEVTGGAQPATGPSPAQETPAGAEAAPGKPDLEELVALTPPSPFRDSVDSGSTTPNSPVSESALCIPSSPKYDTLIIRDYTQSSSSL
Procedure: A mGluR5 PET ligand, [^18F]FPEB, was used to assess receptor occupancy in mice. Mice were dosed orally twice a day with different doses of Compound 1. The available mGluR5 sites in brain were assessed in anesthetized mice both at peak 1 h after a single dose, and at trough after 7 days of twice daily (b.i.d.) oral dosing. The 3.75 mg/kg b.i.d. dose maintains >90% receptor occupancy throughout the dosing period. […] FPEB into the brain of mice. Displacement studies were conducted at expected trough levels and conducted at three dose levels: 0.42, 1.25 and 3.75 mg/kg. The 3.75 mg/kg dose was able to achieve >90% receptor occupancy at trough.

[5] = molecular target: mGluR5 (Homo sapiens, UniProt P41594); experiment: [3H]-MPEPy displacement from mGluR5; type: binding; details: read-out: inhibitor constant (Ki) for [3H]-MPEPy displacement from mGluR5
Chain of mGluR5 (Homo sapiens, UniProt P41594) (P41594 21-1212): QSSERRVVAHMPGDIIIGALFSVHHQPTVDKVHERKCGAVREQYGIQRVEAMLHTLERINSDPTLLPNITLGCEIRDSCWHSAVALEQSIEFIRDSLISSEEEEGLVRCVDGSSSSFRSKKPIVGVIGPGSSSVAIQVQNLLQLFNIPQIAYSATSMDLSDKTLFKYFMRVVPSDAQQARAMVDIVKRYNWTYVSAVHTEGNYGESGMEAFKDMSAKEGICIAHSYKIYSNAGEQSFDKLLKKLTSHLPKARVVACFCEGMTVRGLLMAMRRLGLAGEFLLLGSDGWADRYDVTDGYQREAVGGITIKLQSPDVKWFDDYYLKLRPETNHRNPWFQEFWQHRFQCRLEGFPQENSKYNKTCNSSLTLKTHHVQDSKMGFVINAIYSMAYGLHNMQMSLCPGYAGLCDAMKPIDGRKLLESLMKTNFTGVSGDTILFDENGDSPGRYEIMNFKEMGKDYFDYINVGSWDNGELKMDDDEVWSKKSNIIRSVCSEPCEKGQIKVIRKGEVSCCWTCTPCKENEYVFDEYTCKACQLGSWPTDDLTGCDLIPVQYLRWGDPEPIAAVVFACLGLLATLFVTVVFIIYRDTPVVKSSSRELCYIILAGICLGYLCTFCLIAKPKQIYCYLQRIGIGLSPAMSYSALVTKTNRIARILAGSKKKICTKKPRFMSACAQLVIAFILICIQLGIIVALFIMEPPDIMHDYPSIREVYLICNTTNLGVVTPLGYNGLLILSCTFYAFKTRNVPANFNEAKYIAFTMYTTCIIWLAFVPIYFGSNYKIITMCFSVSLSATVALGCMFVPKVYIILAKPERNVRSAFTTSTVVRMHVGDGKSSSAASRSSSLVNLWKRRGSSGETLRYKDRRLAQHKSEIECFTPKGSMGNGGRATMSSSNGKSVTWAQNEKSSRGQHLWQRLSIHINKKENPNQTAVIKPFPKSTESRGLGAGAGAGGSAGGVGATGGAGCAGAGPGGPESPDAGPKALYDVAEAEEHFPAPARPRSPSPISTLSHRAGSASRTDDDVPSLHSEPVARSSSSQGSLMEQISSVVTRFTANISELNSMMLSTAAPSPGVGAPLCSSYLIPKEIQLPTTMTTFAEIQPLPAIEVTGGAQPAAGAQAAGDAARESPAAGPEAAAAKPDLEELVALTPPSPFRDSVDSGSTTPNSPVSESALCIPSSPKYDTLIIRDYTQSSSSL

[6] = tested on: dKI mice; experiment: SV2A PET imaging of synaptic density in APPNLGF/MAPT (dKI) mouse model; type: in vivo; details: 12 months of age, one-month treatment, 3.75 mg/kg q12 oral
Procedure: (§2) The objective of this study was to assess synaptic density of control and Amyloid Precursor Protein carrying NL-G-F mutations/Microtubule-associated protein tau (APP^NLGF/MAPT) (dKI—double knock-in) mice before and after treatment with Compound 1. Vehicle (95% PEG-400/5% Solutol) or Compound 1 at 7.5 mg/kg/day (3.75 mg/kg q12) was given to control and dKI mice for at least 28 days by oral administration.
To further maximize translational relevance, in other studies mice were aged to the point that synapse loss was detectable using SV2A PET. At 12 months of age, synapse density, as measured by hippocampal/brainstem [^18F]SDM-8 SUVR-1, was reduced in dKI mice relative to wild-type.

[7] = tested on: dKI mice; experiment: Immunohistochemical staining of SV2A and PSD-95 in APPNLGF/MAPT (dKI) mouse model; type: in vivo; details: 3.75 mg/kg q12 oral, at least 28 days
Procedure: as §2
Reduced synaptic density in dKI samples relative to controls was confirmed by immunohistochemical staining of pre- and post-synaptic markers (SV2A and PSD-95) in hippocampal and cortical sections.

[8] = tested on: C57/BI6J mice; experiment: Prevention of positive allosteric modulator (PAM) induced seizures; type: in vivo; details: oral gavage 2 hours before PAM 20 mg/kg i.p.
Procedure: The objective of this study was to assess the enantiomeric selectivity of Compound 1 for the mGluR5 receptor as a function of seizure prevention. It had been previously reported that PAMs of mGluR5 are capable of inducing seizures in C57/BI6J mice.
Compound 1 (0.12, 0.24, 0.47, 0.94, 1.88, 3.75 or 7.5 mg/kg), enantiomer of Compound 1 (7.5, 15 or 30 mg/kg) or vehicle were administered by oral gavage to C57/BI6J mice of 3-11 months of age. After 2 hours, a PAM compound was administered at 20 mg/kg via intraperitoneal injection. Animals were then placed in a 10 inch diameter acrylic cage for observation and video recording for 2 h post dose and seizures were scored using the Racine seizure scoring criteria and normalized to a scale of 0-1.

[9] = tested on: double knock-in mice; experiment: Tau accumulation in double knock-in mice; type: in vivo
From the text: (§3) Compound 1 (e.g., Form A) prevented Alzheimer's triggered aberrant synaptic signaling while preserving physiological Glu activation. Studies have been conducted to show oral Compound 1 effectively occupied brain mGluR5 sites visualized by [^18F]FPEB PET at doses 250-fold below adverse effect levels in rodent and non-human primate. […] Production of the microglial mediator, C1q, was not altered by Compound 1, but Alzheimer-gene-dependent C1q localization to synapses and synaptic engulfment were prevented. Thus, selective modulation of mGluR5 reversed neuronal gene expression changes to protect synapses from damage by microglial mediators.

[10] = tested on: neurons and glia; experiment: Single nuclei transcriptomics; type: in vivo, mice; details: neurons vs glia
From the text: as §3

[11] = tested on: C1q; experiment: C1q production, synaptic localization and synaptic engulfment; set-up: species or system mice; details: mouse, in vivo
From the text: as §3

O=C1N[C@H](c2cncc(C#Cc3ccccc3)c2)[C@@H](c2ccccc2Cl)O1 [Compound 1, (4R,5R)-5-(2-chlorophenyl)-4-(5-(phenylethynyl)pyridin-3-yl)oxazolidin-2-one]
PXR activation, % of the positive control [1]: 29.6%
calculated F2 value, PXR [1]: 5.05 UM
mean maximum fold activation of PXR [1]: 4.58 fold
mean activation of PXR [2]: 4.70 fold
AhR activation, % of the positive control [3]: 0.946%
mean maximum fold activation of AhR [3]: 1.42 fold
free drug above the Ki ([4]; mice, 3.75 mg/kg b.i.d.): 25 fold
free trough drug level ([4]; mice, 3.75 mg/kg b.i.d. oral): 15 nM
receptor occupancy at 3.75 mg/kg ([4]; mice, 3.75 mg/kg b.i.d. oral, read-out: receptor occupancy throughout the dosing period): > 90%
receptor occupancy at 3.75 mg/kg ([4]; mice, 3.75 mg/kg dose, oral, read-out: receptor occupancy at trough): > 90%
doses occupying brain mGluR5 sites below adverse effect levels ([4]; oral, rodent and non-human primate): 250 fold
Ki [5]: 0.6 nM
synaptic density, SV2A PET (hippocampal/brainstem [18F]SDM-8 SUVR-1) [6]: fully recovered; also recorded: highly significant increase
SV2A and PSD-95 staining in the cerebral cortex, relative to vehicle [7]: significant increases
SV2A staining in hippocampus, relative to vehicle [7]: significant increases
seizure prevention activity ([8]; Compound 1 0.12-7.5 mg/kg, enantiomer 7.5-30 mg/kg): dose dependent prevention
IC50 of inhibition of PAM-induced seizures ([8]; Racine score): 1.09 mg/kg
Tau accumulation [9]: reduced
normalization of expression patterns [10]: to a much greater extent in neurons than glia
Alzheimer-gene-dependent C1q localization to synapses and synaptic engulfment [11]: prevented
production of the microglial mediator C1q [11]: not altered
